Source: patent US20080279843A1, “Method For Improving Insulin Sensitivity By Administering an Inhibitor of Antitrypsin” (Essential SkinCare, LLC, priority 2003, published 2008)

Columns and labels:
C57/Black female mice [1] = test: Glucose tolerance test with purified AT alone (Example 4); type: in vivo; conditions: mice fasted 24 h; for Glucose level: purified AT 1200 μg i.p. 24 h before glucose 3 g/kg i.p., mean ± S.D., n=4
Experimental: C57/Black female mice, weighing 22-25 g were fasted for 24 hours. Four animals were used for each of two groups. The first group received intraperitoneal injections of 1200 μg purified AT, i.e. AT purified by the procedure of Example 1. Exactly 24 hours after the AT was administered to the first group, glucose (3 g/kg) was injected intraperitoneally into mice in both groups. Blood samples were immediately measured with the fast Glucose C test (Wako Chemicals Inc. Richmond, Va., USA). The experiment was repeated a second time.
The data presented for each experiment are the mean ±S.D. of four determinations, one with each animal.

C57/Black female mice [2] = test: Glucose tolerance test with insulin and commercial AT (Example 2); type: in vivo
Experimental: C57/Black female mice weighing 22-23 g were fasted for 16 hours. Four animals were used for each of four treatment groups. The first and fourth treatment group received intraperitoneal injections of 1500 μg commercially obtained AT. Exactly 23 hours and 45 minutes after the AT was administered to the first and fourth treatment group, the animals in the first and second treatment group received 0.5 I.U. of insulin. Exactly 15 minutes after the insulin was administered (i.e., 24 hours after the AT was administered to the first treatment group), glucose (3 g/kg) was injected intraperitoneally into the first, second and third treatment groups. Blood samples were taken from the eyes (canthus), and glucose concentrations in whole blood samples were immediately measured with the fast Glucose C test (Wako Chemicals USA Inc., Richmond, Va., USA). The data presented are the mean ±S.D. of four determinations, one with each animal.

[3] = highly purified AT 1200 μg i.p. 24 h before glucose 3 g/kg i.p.

**Q.** How did the Glucose level (C57/Black female mice [1]; Experiment 1, 0 min) turn out when α1-antitrypsin [AT] was run?
**A.** 2.3 ± 0.3 mM

**Q.** And the Glucose level (C57/Black female mice [1]; Experiment 1, 30 min)?
**A.** 8.5 ± 0.6 mM

**Q.** What about the Glucose level (C57/Black female mice [1]; Experiment 1, 60 min) of the same substance?
**A.** 7.1 ± 0.5 mM

**Q.** And the Glucose level (C57/Black female mice [1]; Experiment 1, 120 min)?
**A.** 6.1 ± 0.4 mM

**Q.** And the Glucose level (C57/Black female mice [1]; Experiment 1, 180 min)?
**A.** 4.7 ± 0.5 mM

**Q.** What about the Glucose level (C57/Black female mice [1]; Experiment 2, 0 min) of the same substance?
**A.** 2.7 ± 0.3 mM

**Q.** And the Glucose level (C57/Black female mice [1]; Experiment 2, 30 min)?
**A.** 7.9 ± 0.3 mM

**Q.** What about the Glucose level (C57/Black female mice [1]; Experiment 2, 60 min) of the same substance?
**A.** 6.5 ± 0.5 mM

**Q.** And the Glucose level (C57/Black female mice [1]; Experiment 2, 120 min)?
**A.** 5.9 ± 0.4 mM

**Q.** And the Glucose level (C57/Black female mice [1]; Experiment 2, 180 min)?
**A.** 4.5 ± 0.4 mM

**Q.** What about the “Effect of AT on blood glucose level in the first 60 min after glucose” value (C57/Black female mice [1]; [3]) of the same substance?
**A.** no major effects in the first 60 min

**Q.** What about the “Effect of AT on return of blood glucose level to near-normal level during the next 120 min” value (C57/Black female mice [1]; [3]) of the same substance?
**A.** clearly delayed return of blood glucose level to near-normal level

**Q.** And the “Effect of AT on the action of insulin on blood glucose level” value (C57/Black female mice [2]; FIG. 2, AT 1.5 mg/mouse i.p. 24 h prior, insulin 0.5 I.U., glucose 3 g/kg i.p.)?
**A.** blocked the action of insulin

**Q.** What about the “Effect of AT alone on the blood glucose level” value (C57/Black female mice [2]; FIG. 2 insert, AT 1.5 mg/mouse i.p., no insulin, no glucose (fourth treatment group)) of the same substance?
**A.** no significant effect on the blood glucose level
